In a melting point compilation (Tetko et al.; mined from patent text by program, amines drawn as free bases though some values may be those of a salt):

Compound	melting point [°C]
Cn1cc(C2=C(c3cn(CCCN=[N+]=[N-])c4ccccc34)C(=O)NC2=O)c2ccccc21	222 to 224
COc1ccc(-n2cc(C(F)(F)F)nc2-c2ccc(OC)nc2)cc1	90 to 92
CC(CN(C)C)CC(CNC(=O)N(CCCl)N=O)(c1ccccc1)c1ccccc1 (stereo not drawn)	105 to 107
N=C(Nc1ccc(Cl)c(Cl)c1)Nc1ncccc1OCc1ccccc1	161 to 162
CCOC(=O)c1c(O)c2cnc(N3CCCC3)nc2n(C)c1=O	174 to 177
CC(CCCl)C(=O)Nc1nnc(C(C)(C)C)s1 (stereo not drawn)	124 to 126
CCCCCC(=O)C=CC1=C(CCC(=O)O)C(=O)CC1O (stereo not drawn)	57
CC1NCCc2ccccc21 (stereo not drawn)	60
COc1ccc(CC(C)NCC(O)c2cccc(Cl)c2)cc1F (stereo not drawn)	93 to 95
O=C(O)CCc1c[nH]c2c(C(=O)c3ccccc3)cccc12	166
CCn1c(C)c(C(C)=O)c(N=Cc2ccccc2)c1-c1ccccc1	139 to 141
CC1(C)Oc2cc3nonc3cc2C(N2CC(O)CCC2=O)C1O (stereo not drawn)	178 to 182
COc1ccc(OC)c(C2=Nc3ccc(N4CCCC4)cc3C(=O)C2)c1	272 to 274
CCn1c2ccccc2c2[nH]c(=O)c3nccn3c21	315
CCc1ccccc1C(N)=NO	54 to 55
O=C1NCC(CCc2ccccc2Cl)O1 (stereo not drawn)	74 to 75
Cc1ccccc1-c1c(Cl)nc2ccccc2c1Cl	78 to 80
CC(=O)Nc1ccc(C(=O)N2CCOCC2)cc1[N+](=O)[O-]	128 to 132
COc1ccc(C=C(C#N)c2ccccn2)cc1OC	112
CCCCCCCCCCc1sc2c(sc3c2sc2c4sccc4sc23)c1CCCCCCCCCC	50.9 to 52.5
Cc1ccc2oc(=O)c(NC(=O)Nc3ccc(F)cc3F)c(-c3ccccc3C)c2c1	213 to 214
CCCCn1cc(C2CCN(Cc3ccc(OC)c(C(=O)O)c3)CC2)c2cccnc21	174 to 175
CCNCC1(C)CN(c2c(F)cc3c(=O)c(C(=O)O)cn4c3c2OC[C@H]4C)C1	242 to 245

Compound	melting point [°C]
C[C@@H](Nc1ncnc2cc(OCC3CC3)c([N+](=O)[O-])cc12)c1ccccc1	155
CC1NC(=O)C2=C1c1ccc(Cl)cc1C(c1ccccc1Cl)=NC2 (stereo not drawn)	239 to 241
CC(C)(C)C(=O)c1c[nH]c2ncc(-c3ccc(S(N)(=O)=O)cc3)nc12	277 to 278
CC12CC(O)C3(F)C(CCC4=CC(=O)C=CC43C)C1CCC2S (stereo not drawn)	295 to 297
N#CC(C(=O)Nc1cccc(C(F)(F)F)c1)C(=O)c1ccc[nH]1 (stereo not drawn)	210 to 212
O=C(NCCN1CC=C(n2c(=O)[nH]c3ccccc32)CC1)c1ccc(F)cc1	203
CN(C)C=C(C#N)C(=O)c1ccc(C(C)(CN)C(=O)OC(C)(C)C)cc1 (stereo not drawn)	160 to 162
C=C=CC(C)(O)c1ccc(Br)cc1 (stereo not drawn)	45 to 50
Cc1ccc2c(c1)[nH]c1cc(C)ccc12	280 to 281
CC(=O)SCC(C)NS(=O)(=O)c1c(C)cc(C)cc1C (stereo not drawn)	123 to 126
CC(C)N1OCCC(C(O)c2cc(C(C)(C)C)c(O)c(C(C)(C)C)c2)C1=O (stereo not drawn)	150 to 153
O=C1NC(CCc2cc(C(F)(F)F)cc(C(F)(F)F)c2)C(Cc2c[nH]c3ccccc23)N1 (stereo not drawn)	194 to 195
O=c1[nH]c2ccccc2n1CCCN1CCC(OC(c2ccccc2)c2ccccc2)CC1	149
CCSc1ccc2c3c([nH]c2c1)CCCCC3C (stereo not drawn)	44
COc1cccc(C2=C(C(=O)c3ccc(O)cc3)c3ccc(OC)cc3CC2)c1	197 to 198
CS(=O)(=O)c1ccc(C(CC2CCCC2)C(=O)Nc2ccccn2)cc1Br (stereo not drawn)	99 to 101
Cc1ccc(S(=O)(=O)N2CCCC2c2ccc(F)cc2)cc1Cl (racemic)	134
C[C@](O)(CBr)C(=O)Nc1ccc([N+](=O)[O-])c(C(F)(F)F)c1	70 to 74
C#CCn1c2ccccc2c2cc(Br)ccc21	142 to 149
Cc1ccccc1C1C(C#N)=C(c2cccs2)Nc2n[nH]cc21 (stereo not drawn)	276
COc1ccc(S(=O)(=O)N2C(=O)C(c3ccccc3OC)(N3C[C@H](OC)C[C@H]3C(=O)N(C)C)c3cc(Cl)ccc32)c(OC)c1 (stereo partly drawn)	189 to 191
COC1(c2cc(F)cc(Sc3ccc(Cc4ccc(F)cc4)cc3)c2)CCOCC1	62 to 64
CCOc1ccc(N(Cc2ccccc2)Cc2ccccc2)cc1	80 to 82

Further lines, results first:

melting point [°C]	Compound
100 to 103	Cn1cccc1-c1oncc1C(=O)Nc1ccccc1
143 to 146	CCOC(=O)C(=NOC)c1noc(C(Cl)(Cl)Cl)n1
225 to 226	CC1CSC2=C(O1)c1cc(N3CCCCC3)ccc1C(=O)C2=O (stereo not drawn)
78 to 79	N#CSCC(=O)N1CCCCC1
170 to 172	Oc1ccc(-c2ccccn2)c(O)c1
102 to 104	CC(C)(C)OC(=O)N1CCC(CCC(=O)N2CCC[C@@H](C(=O)O)C2)CC1
74 to 75	O=C(O)[C@H](Cc1ccc(C(F)(F)F)c(F)c1)[C@@H](O)c1ccc(F)cc1 (racemic)
214 to 217	O=C1CNC(=O)N1C1CCNCC1
60	COc1cc2cc(C3CCCCC3)sc2c(Cl)c1Cl
307 to 309	Cn1cc(C2=C(c3c4n(c5ccccc35)CCC(C(N)=O)C4)C(=O)OC2=O)c2ccccc21 (stereo not drawn)
118 to 120	CCCCCCCCC1C=CC(Oc2ccc(C(=O)O)o2)=C2N=C3CCCC(C)(C)C3=C21 (stereo not drawn)
293 to 296	CCCn1c(=O)c2[nH]c(-c3cc(C)n(CC(=O)Nc4ccc(OC)cc4)n3)nc2n(CCC)c1=O
105 to 107	COC(=O)C(CSCc1ccc(OC)cc1)NC(=O)NCCCCC1CCSS1 (stereo not drawn)
263 to 265	CCc1ccc2nc(N)nc(Nc3ccccc3C)c2c1
169 to 170	Ic1ccc2c(c1)Sc1ccc(I)cc1S2
91 to 95	COCCc1nc(Cl)c(CO)[nH]1
112 to 113	CNS(=O)(=O)c1cc(C)oc1CC(=O)O
102 to 103	CC(C)N(CCCCO)c1cnc(-c2ccccc2)c(-c2ccccc2)n1
113 to 114	O=S(=O)(c1ccccc1)c1ccc(Oc2ccc(Cl)c(Cl)c2)nc1

melting point [°C]	Compound
61 to 63	Cc1ccc(C(=O)CCCCCBr)cc1C
291	COc1ccccc1Sc1c(O)nc[nH]c1=O
152 to 154	CN1CC(C(=O)N(C)C(Cc2ccc(Cl)cc2)Cc2ccc(Cl)cc2)=C(O)C1=O
57 to 60	O=C(NCCBr)Oc1ccccc1
165	O=[N+]([O-])c1ccc(SNc2nccs2)c(C(Cl)(Cl)Cl)c1
65 to 66	CCOC(=O)/C=C/C=C/c1ccc(OCC(F)(F)C(F)F)cc1
208 to 211	Cc1cc(O)nn1-c1ccc(Cl)c(Cl)c1
74 to 80	COC(=O)c1ccccc1OCCCn1c(C(=O)C2CCN(CCC3(c4ccccc4)CCN(C(=O)c4cc(OC)c(OC)c(OC)c4)C3)CC2)nc2ccccc21 (stereo not drawn)
> 230	Cc1cc(=O)n(-c2cc3c(cc2F)OC(CC#N)C(=O)N3)c(=O)[nH]1 (stereo not drawn)
300	Clc1nc(-c2nc3ccccc3[nH]2)[nH]c1Cl
105 to 106	CC(C)(C)OC(=O)n1ccc2cc(-c3ccccc3)ccc21
223 to 227	CC1CN(S(=O)(=O)c2cccc(C(=O)O)c2)C(C)CN1S(=O)(=O)c1cccc(C(=O)O)c1 (stereo not drawn)
200 to 201	Cc1ccc(-c2nc3c(N[C@H]4[C@@H](C(N)=O)[C@@H]5C=C[C@H]4C5)c(Br)cnc3[nH]2)o1
122 to 123	COC(=O)C(=O)c1ccc(OCCOc2ccc([N+](=O)[O-])cc2)cc1
164 to 166	O=C(Oc1ccccc1)N1C=CC(c2c(-c3ccc(F)cc3)nc3n2CCS3)C=C1
66 to 68	CCCCNC(=O)n1cc[nH]c1=S
275 to 278	CC1=C(C(=O)NCc2ccncc2)SCN1n1ccc(O)cc1=O
95 to 96	CC(C)c1ccc2nc3ccc(C(=O)OCCCCc4cccnc4)cn3c(=O)c2c1
182 to 185	Cn1cc(-c2cc3cccnc3[nH]2)c2cc(OCC(O)CO)ccc21 (stereo not drawn)

melting point [°C]	Compound
110 to 111	NC(=O)CNC(=O)COC[C@@H]1CCCN1C(=O)OCc1ccccc1
203 to 204	CCCCOc1c(CNC(=O)OCC2c3ccccc3-c3ccccc32)n(CC(C)C)c(=O)c2ccc(-c3nc(C)c(C(=O)OCC)s3)cc12
205 to 210	COc1nc2ncnc(NCC=C(C)C)c2[nH]1
120 to 122	O=C(NCCCl)Nc1ccncc1
145 to 146	CC[C@H]1CN(c2c(F)c(N)c3c(=O)c(C(=O)O)cn(C4CC4)c3c2F)C[C@H]1CNCCC(=O)C(F)(F)F (relative stereo)
> 250	Cc1ccc(-n2c(=O)c(N)nc3cccnc32)cc1
321	CCOC(=O)c1c2n(c3ccc(Cl)cc3c1=O)CCS2
115 to 118	CCSC(=O)c1nc(N)ccc1Oc1nc(OC)cc(OC)n1
178 to 181	CC(C)c1cc(Oc2c(Cl)cc(CP(=O)(O)O)cc2Cl)ccc1O
202 to 204	O=C(c1ccc2c(c1)Cc1ccccc1-2)N1Cc2cccn2Cc2ccccc21
134 to 136	CCc1nn(C2CCCC2)c2cc(C(=O)NCCC(=O)NOCc3ccccc3)ccc12
277	CC(C)(C)c1nc(-c2nnc(NC(=N)N)s2)nc(C(C)(C)C)c1O
81 to 82	CC(=O)OCC(C(OC(C)=O)c1ccc(Br)cc1)[N+](=O)[O-] (stereo not drawn)
160 to 162	C(=C(/c1ccccc1)n1c2ccccc2c2ccccc21)/c1ccccc1
174 to 175	Cc1c(CC(=O)N(C)O)c2cc(OCc3nc4ccccc4s3)ccc2n1Cc1ccc(Cl)cc1
142	CCOC(=O)CCCn1c(C(=O)O)cc2cc(C)ccc21
98 to 99	Nc1cccc(OCc2ccc3ccccc3n2)c1
121	Cc1ccc(S(=O)(=O)N2[C@@H](CCn3cccn3)CC[C@H]2c2ccc(F)cc2)cc1 (racemic)
104 to 106	Cc1ccc(C)c(N2C(=O)CON(C)C2=S)c1
